From US20080085264A1, “METHODS FOR ENHANCING STEM CELL ENGRAFTMENT DURING TRANSPLANTATION” (priority 2003, published 2008)

Columns and labels:
[1] = test system: Sca-1+c-kit+lin- mBM cells; assay: Chemotaxis assay, CXCL12 induced migration of sorted Sca-1+c-kit+lin- mBM cells; type: cell-based, mouse; conditions: 5 mM Diprotin A
Method: (§1) Chemotaxis assays were performed using 96-well chemotaxis chambers (NeuroProbe, Gaithersburg, Md.) in accordance with manufacturer's instructions as described previously with minor variations (Christopherson K W, 2nd, et al. J Immunol. 2002; 169:7000-7008; Christopherson K W, 2nd, et al. Blood. 2001; 98:3562-3568; Christopherson K, 2nd, et al. Immunol Lett. 1999; 69:269-273). Briefly 300 μl of RPMI supplemented with 10% FBS and either 0, 100, 200, and 400 ng/ml of mouse CXCL12 chemokine was added to the lower chamber. Ten-thousand sorted cells in 50 μL of media were added to the upper side of the membrane (5.7 mm diameter, 5 μm pore size, polycarbonate membrane.)
(§2) Total cell number in the lower well was obtained by counting using hemocytometer after 4 hours of incubation at 37° C., 5% CO2. Percent migration was calculated by dividing the number of the cells in the lower well by the total cell input multiplied by 100 and subtracting random migration (always less than 5%) to the lower chamber without chemokine presence. Three samples were analyzed separately in triplicate, and then the data averaged for statistical analysis.
(§3) The N-terminal truncated mouse CXCL12 (CXCL12 (amino acids 3-68)) was produced by treatment of mouse CXCL12 with DPPIV (Enzyme Systems Products, Livermore, Calif.) for 18 hrs at 37° C. in PBS pH 7.4. […]

BoyJ irradiated mice = assay: Competitive repopulation assay; type: in vivo, mouse; conditions: six months post transplant, 5×10^5 or 2.5×10^5 donor cells vs 5×10^5 competitor BoyJ cells
Excerpt: Donor LDBM cells (5×10^5) from representative mice from each test group were transplanted into lethally irradiated BoyJ mice (expressing CD45.1) Quantitative contribution to chimerism was obtained 2-6 months post-transplantation in the same manner described for long-term engraftment assays.
Eight week old female recipient mice were lethally irradiated (1100 cGy split dose) prior to transplantation as previously described (Haneline L S, et al. Blood. 1999; 94:1-8). Limiting dilutions of donor LD BM cells (5×10^5, 2.5×10^5, 1.25×10^5, and 0.625×10^5 cells) from control C57Bl/6 mice, CD26-inhibitor treated LD BM cells, or untreated LD BM cells from CD26^−/− mice (all expressing CD45.2) are co-transplanted with a constant number (5×10^5) of pooled competitive BM cells from congenic BoyJ mice (expressing CD45.1), into BoyJ irradiated mice. To determine quantitatively the relative cell contribution to chimerism of each test cell population tail-vein blood samples were obtained post-transplantation each month for three months and CD45.1 and CD45.2 was measured by flow-cytometry. Cells were divided into CD26 inhibitor (either Diprotin A or Val-Pyr) treated or untreated groups obtained from normal C57BL/6 mice and untreated cells obtained from CD26^−/− mice. […]

[2] = test system: Sca-1+c-kit-lin- mBM cells; assay: Chemotaxis assay, CXCL12 induced migration of sorted Sca-1+c-kit-lin- mBM cells; type: cell-based, mouse; conditions: 5 mM Diprotin A
Method: as §1, §2, §3

[3] = test system: Sca-1+lin- mouse BM cells; assay: Chemotaxis assay, CXCL12 induced migration of Sca-1+lin- mouse BM cells; type: cell-based
Method: as §1, §2
Inhibition of endogenous CD26/DPPIV activity was accomplished by pretreatment of cells with 5 mM Diprotin A (Peptides International, Louisville, Ky.) for 15 minutes at 37° C. Diprotin A was allowed to remain in the chemotaxis chamber during the assay. […]

## Ile-Pro-Ile [Diprotin A]
[1]; 100 ng/ml CXCL12
  enhancement in migration: two-fold
[1]; 200 and 400 ng/ml CXCL12
  increase in total cell migration: 1.7 fold
BoyJ irradiated mice
  donor contribution to chimerism: increased donor contribution to chimerism
[2]; 100 ng/ml CXCL12
  increase in total cell migration: 2.5 fold
[2]; 200 and 400 ng/ml CXCL12
  increase in total cell migration: two-fold
[3]; Diprotin A treated Sca-1+lin- BM cells from C57BL/6 mice
  increase in CXCL12-induced migratory response: two-fold
[3]; Diprotin A treatment of CD26-/- Sca-1+lin- cells compared to untreated CD26-/- cells
  effect on CXCL12-induced migration of CD26-/- cells: no further enhancing effect
